pIC50, pKi: −log10 of the molar value. Where two headings read alike, the source gives them in different places.
Assays:
[1] = molecular target: T1, 5-HT1A receptor (Rattus norvegicus, UniProt P19327); test: inhibition of [3H] 8-hydroxy-2-(di-n-propylamino)tetraline binding at 5-HT1A receptor binding sites in rat hippocampal tissue; conditions: for inhibition at 1 µM: read-out: Receptor Binding 5HT1A % Inhibition at 1 μM
T1 construct: from tissue; host or cells: rat hippocampal tissue
T1 sequence (P19327 1-422): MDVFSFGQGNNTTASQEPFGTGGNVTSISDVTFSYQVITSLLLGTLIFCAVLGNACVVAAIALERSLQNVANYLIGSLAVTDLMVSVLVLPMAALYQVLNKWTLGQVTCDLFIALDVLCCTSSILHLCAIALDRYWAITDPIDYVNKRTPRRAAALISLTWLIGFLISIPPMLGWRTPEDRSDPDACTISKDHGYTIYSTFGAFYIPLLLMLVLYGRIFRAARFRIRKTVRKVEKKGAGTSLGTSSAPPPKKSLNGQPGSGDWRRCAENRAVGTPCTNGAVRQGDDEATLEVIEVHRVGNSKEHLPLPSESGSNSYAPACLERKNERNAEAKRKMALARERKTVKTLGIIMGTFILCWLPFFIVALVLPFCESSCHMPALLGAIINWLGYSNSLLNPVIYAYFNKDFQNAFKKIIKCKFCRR
Excerpt: 8-hydroxy-2-(di-n-propylamino)tetraline binding at 5-HT binding sites in rat hippocamphal tissue, following the procedure of Hall et al., J. Neurochem., 44 1685 (1985).

[2] = molecular target: T2, dopamine D2 receptor (Rattus norvegicus, UniProt P61169); test: inhibition of 3H-haloperidol binding at D2 receptors in homogenized limbic brain tissue
T2 construct: D2 receptors found in homogenized limbic brain tissue; from tissue; host or cells: homogenized limbic brain tissue
Excerpt: The actual percentage reduction of ^3 H-haloperidol binding is reported infra and the larger the number, the greater the potential for dopamine D2 receptor binding and antipsychotic activity.

[3] = system: NE (synaptosomal norepinephrine uptake); test: inhibition of synaptosomal uptake of norepinephrine (3H-NE); assay type: biochemical; conditions: synaptosomal 3H-NE uptake; for pIC50: read-out: Neuronal Uptake NE IC50
[4] = system: 5HT (synaptosomal serotonin uptake); test: inhibition of synaptosomal uptake of serotonin (14C-5-HT); assay type: biochemical; conditions: synaptosomal 14C-5-HT uptake; for pIC50: read-out: Neuronal Uptake 5HT IC50
[5] = at 1 μM, rat hippocampal tissue

T2 sequence (P61169 whole entry): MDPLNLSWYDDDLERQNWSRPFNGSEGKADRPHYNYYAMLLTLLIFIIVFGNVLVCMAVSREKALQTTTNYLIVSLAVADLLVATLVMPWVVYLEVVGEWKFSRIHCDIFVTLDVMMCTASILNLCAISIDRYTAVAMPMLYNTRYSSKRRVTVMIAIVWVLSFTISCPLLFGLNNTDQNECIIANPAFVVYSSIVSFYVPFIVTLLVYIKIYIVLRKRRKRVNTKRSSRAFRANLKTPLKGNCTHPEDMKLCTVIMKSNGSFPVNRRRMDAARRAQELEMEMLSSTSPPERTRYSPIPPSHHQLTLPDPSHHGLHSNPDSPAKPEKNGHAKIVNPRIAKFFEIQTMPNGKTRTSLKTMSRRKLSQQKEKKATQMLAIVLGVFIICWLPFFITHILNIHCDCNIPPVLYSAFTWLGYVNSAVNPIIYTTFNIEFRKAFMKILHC

inhibition at 1 µM [1, 5]	Structure (SMILES)	pKi ([1]; rat hippocampal tissue)	inhibition at 1 µM [2]	pIC50 [3]	pIC50 [4]	further results
	O=C1CC2(CCCC2)CC(=O)N1CCCCN1CCN(c2ncccn2)CC1 [Buspirone, reference compound]					inhibition at 1 µM [1]: 97%
	COc1cccc(C(=CCN2CCN(Cc3ccccc3)CC2)C2(O)CCCCC2)c1 [Example 1, 1-[1-(3-methoxyphenyl)-3-[4-(phenylmethyl)-1-piperazinyl]-1-propenyl]cyclohexanol]	8.52	80%	6.19	5.77	
	COc1ccc(C(=CCN2CCN(Cc3ccccc3)CC2)C2(O)CCCCC2)cc1 [Example 2, 1-[1-(4-methoxyphenyl)-3-[4-(phenylmethyl)-1-piperazinyl]-1-propenyl]cyclohexanol]	8.40	66%			
	COc1cccc(C(=CCN2CCN(Cc3cccc(Cl)c3)CC2)C2(O)CCCCC2)c1 [Example 4]	9.15				pKi [2]: 7.77; Neuronal Uptake NE % Inhibition at 10 μM ([3]; at 10 μM): 100%; Neuronal Uptake 5HT % Inhibition at 10 μM ([4]; at 10 μM): 100%
99%	COc1cccc(C(=CCN2CCN(Cc3ccc(Cl)cc3)CC2)C2(O)CCCCC2)c1 [Example 5, 1-[3-[4-[(4-chlorophenyl)methyl]-1-piperazinyl]-1-(3-methoxyphenyl)-1-propenyl]cyclohexanol]		76%			
99%	COc1cccc(C(=CCN2CCN(Cc3ccc(C(F)(F)F)cc3)CC2)C2(O)CCCCC2)c1 [Example 6, 1-[1-(3-methoxyphenyl)-3-[4-[[4-(trifluoromethyl)phenyl]methyl]-1-piperazinyl]-1-propenyl]cyclohexanol]		76%			
	COc1cccc(C(=CCN2CCN(c3ncccn3)CC2)C2(O)CCCCC2)c1 [Example 7]	7.31	61%	5.32	5.68	
	COc1cccc(C(=CCN2CCN(c3cncc(Cl)n3)CC2)C2(O)CCCCC2)c1 [Example 8, 1-[3-[4-(6-chloro-2-pyrazinyl)-1-piperazinyl]-1-(3-methoxyphenyl)-1-(3-methoxyphenyl)-1-propenyl]cyclohexanol]	6.86				

Structure (SMILES)	inhibition at 1 µM [1, 5]	pKi ([1]; rat hippocampal tissue)	inhibition at 1 µM [2]	pIC50 [3]	pIC50 [4]	further results
COc1ccc(C(=CCCN2CCN(Cc3ccccc3)CC2)C2(O)CCCCC2)cc1 [Example 10, 1-[1-(4-methoxyphenyl)-4-[4-(phenylmethyl)-1-piperazinyl]-1-butenyl]cyclohexanol]	74%		53%	6.72	6.04	
